Results taken from paper PMC7170889, “Synthesis and evaluation of designed PKC modulators for enhanced cancer immunotherapy” (Nature Communications, 2020).

What was measured:
PKC = PKC competitive binding assay, isoform not specified; parameters: species or system human; conditions: charged substituents at C13; Table 1 data
Description: (§1) With a panel of compounds bearing diverse functionality at C13, we began to explore how these modifications affect PKC binding and biological function. Because an obvious prerequisite for PKC pathway involvement is binding to PKC, compounds were initially evaluated for PKC affinity in a cell-free competitive binding assay with tritiated phorbol dibutyrate ([^3H]-PDBu). Assays were performed with representative members of both the conventional (PKCα) and novel (PKCδ) PKC families. Subsequently, compounds were assayed for PKC isoform translocation in real time in living cells using an optical assay. Translocation to the plasma membrane is the hallmark of PKC activation[18],[57],[60] and therefore monitoring the subcellular localization of a PKCδ-GFP fusion protein via confocal microscopy offers a convenient method for determining whether a compound enters a cell and engages its PKC isoform target. Finally and of clinical significance, we also determined the effect of compounds on CD22 surface expression in vitro in NALM6 cells, an ALL cell line previously studied in connection with CD22-targeted CAR T cell therapy, and two additional lymphoma cell lines[11],[31],[65].
(§2) PKC Binding Assay Protocol […]
(§3) competition with 3H-phorbol-12,13-dibutyrate (3H-PDBu) as described below. This procedure entails a glass-fiber filtration method to determine bound radioligand.
(§4) Preparation of PKC binding assay buffer
(§5) To a 50 mL polypropylene tube was added Tris-HCl (pH 7.4, 1 M, 1 mL), KCl (1 M, 2 mL), CaCl2 (0.1 M, 30 μL), and bovine serum albumin (BSA, 40 mg, Sigma-Aldrich). This mixture was diluted to 20 mL with deionized H2O and mixed gently. The buffer was stored on ice until use. The final […]
(§6) Supplementary Table1. PKC binding assay buffer composition.
(§7) Preparation of phosphatidylserine (PS) vesicles
(§8) For every two assays, 3.5 mg phosphatidylserine (Avanti Polar Lipids, porcine, 25 mg/mL CHCl3 solution) was concentrated by removing chloroform under a stream of nitrogen followed by reduced pressure. The solid PS was suspended as vesicles in freshly prepared PKC binding assay buffer (3.5 mL) by sonicating six times for 30 sec, with a 30 sec rest between sonications (Branson Sonifier 250, power = 2, 50% duty cycle). The resulting milky cloudy mixture (1 mg/mL) was stored […]
(§9) Preparation of PKC isoform solution
(§10) Assay PKC was prepared by dissolving a 4 μg aliquot of the indicated recombinant human PKC isoform (Invitrogen) into 11.6 mL of PKC binding assay buffer (this amount is sufficient for two assays). The diluted PKC was stored on ice for immediate use.
(§11) Preparation of 3H-PDBu solution
(§12) 3H-PDBu (American Radiolabeled Chemicals, Inc.; 1 mCi/mL acetone solution; specific activity: […]) was diluted 10-fold with DMSO. The resulting 500 nM stock solution was further diluted with DMSO to 30 nM.
(§13) Preparation of analog compound dilutions
(§14) Compound dilutions were prepared by serially diluting from a chosen "high" concentration by factors of 3 or 4. For each analog compound, seven concentrations were used to define the […]
(§15) To a polypropylene tube was added 3.3 mL of 1 mg/mL PS vesicles solution, 11 mL of PKC isoform solution, and 1.1 mL of 30 nM 3H-PDBu solution were added. The resulting solution was vortexed to mix and stored on ice.
(§16) PKC binding assay protocol
- Glass-fiber filters (Whatman GF/B) were prepared by soaking them in a solution of […]

PKCα = molecular target: T1, PKCα (Homo sapiens, UniProt P17252); assay: PKC competitive binding assay with [3H]-phorbol dibutyrate (PKCα); conditions: cell-free, competition with [3H]-PDBu, PS vesicles; read-out: Ki PKCα
T1 construct: purchased Invitrogen
Description: as §1, §2, §3, §4, §5, §6, §7, §8, §9, §10, §11, §12, §13, §14, §15, §16
(§17) - Glass-fiber filters (Whatman GF/B) were prepared by soaking them in a solution of aqueous polyethyleneimine (10% by vol, 18 mL) in deionized water (600 mL) for ≥1h.
(§18) - 500 mL "rinsing buffer" of 20 mM Tris, pH 7.4 was cooled on ice for the duration of the incubation period and for the remainder of the assay.
Triplicate data points were obtained for each analog concentration. For each data point, 280 μL of "Master Mix" Solution and 20 μL of analog compound at a specified concentration were added to a polypropylene tube. Non-specific 3H-PDBu binding was assessed in triplicate by substitution

PKCδ = molecular target: T2, PKCδ (Homo sapiens, UniProt Q05655); assay: PKC competitive binding assay with [3H]-phorbol dibutyrate (PKCδ); conditions: cell-free, competition with [3H]-PDBu, PS vesicles
T2 construct: purchased Invitrogen
T2 sequence (Q05655 whole entry): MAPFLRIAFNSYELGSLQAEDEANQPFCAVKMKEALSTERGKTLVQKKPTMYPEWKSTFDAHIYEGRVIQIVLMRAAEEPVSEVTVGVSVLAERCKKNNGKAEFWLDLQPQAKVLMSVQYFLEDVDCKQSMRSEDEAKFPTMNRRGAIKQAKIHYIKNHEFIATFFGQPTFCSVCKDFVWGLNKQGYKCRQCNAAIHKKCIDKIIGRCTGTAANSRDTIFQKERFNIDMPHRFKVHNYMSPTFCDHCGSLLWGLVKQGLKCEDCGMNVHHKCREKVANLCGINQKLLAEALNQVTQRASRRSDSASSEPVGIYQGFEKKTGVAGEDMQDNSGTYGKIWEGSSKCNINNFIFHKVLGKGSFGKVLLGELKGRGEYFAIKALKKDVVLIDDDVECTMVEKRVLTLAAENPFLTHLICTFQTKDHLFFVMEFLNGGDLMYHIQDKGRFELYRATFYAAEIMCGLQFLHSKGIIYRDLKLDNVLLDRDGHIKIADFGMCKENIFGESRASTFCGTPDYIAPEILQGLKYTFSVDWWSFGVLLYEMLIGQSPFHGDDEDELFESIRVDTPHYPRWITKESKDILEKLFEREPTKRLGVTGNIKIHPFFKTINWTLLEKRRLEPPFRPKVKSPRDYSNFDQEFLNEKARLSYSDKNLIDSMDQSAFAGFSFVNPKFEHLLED
Description: as §1, §2, §3, §4, §5, §6, §7, §8, §9
Assay PKC was prepared by dissolving a 4 μg aliquot of the indicated recombinant human PKC isoform (Invitrogen) into 11.6 mL of PKC binding assay buffer (this amount is sufficient for two assays). The diluted PKC was stored on ice for immediate use. […]
μCi/mmol) was diluted 10-fold with DMSO. The resulting 500 nM stock solution was further diluted with DMSO to 30 nM.
as §13, §14, §15, §16, §17, §18
Triplicate data points were obtained for each analog concentration. For each data point, 280 μL of "Master Mix" Solution and 20 μL of analog compound at a specified concentration were added to a polypropylene tube. Non-specific 3H-PDBu binding was assessed in triplicate by substitution […]
μM). Maximal 3H-PDBu binding was assessed in triplicate by substitution of the analog compound with 20 μL DMSO. The solutions were vortexed to mix, incubated at 37 °C for 10 min, and […]

PKCδ-GFP fusion protein = molecular target: T3, PKCδ-GFP fusion protein (Homo sapiens, UniProt Q05655); assay: PKCδ-GFP translocation assay in living CHO-k1 cells (confocal microscopy); assay type: cell-based, Chinese hamster; conditions: for minimum effective concentration required to induce translocation of PKC-GFP to the membrane: tested at 200 and 1000 nM
T3 construct: expressed in transfected cells; host or cells: CHO-k1 (Chinese hamster ovary, ATCC)
T3 sequence (Q05655 whole entry, the tested form may be a part): as the sequence (Q05655 whole entry) above
Description: as §1
Scale bar represents 25 μm. Experiments performed in n = 3 biological replicates. b–d Cytosolic fluorescence normalized to t = 0 (time immediately prior to addition of compound to media) and plotted against time. Error bars excluded for clarity (data presented as the mean of n = 3 biological replicates). Individual curves with error bars included in Supplementary Information.
PKCδ-GFP Translocation Assay Protocol
Chinese hamster ovary factor K1 (CHO-k1, ATCC) cells were cultured in F-12 Kaighn’s media (Hyclone, 10% fetal bovine serum, 1% penicillin/streptomycin added, reffered to as F-12 +/+ below) at 37 ° C in an incubator (5% CO2). Cell cultures were maintained by splitting cells 1:3 when they reached ~75-100% confluence (every 2-3 days) as follows:
(Gibco) was used to remove the cells from the culture flask (T75, Falcon). 1 mL of the cell suspension was then added to 9 mL of fresh F-12 +/+ and the sample was sub-cultured until reaching confluence (~2-3 days).
Cells were counted using a Countess II Automated Cell Counter (Fisher). The cell suspension was diluted to 240,000 cells/mL with fresh F-12 +/+ and 2.5 mL of this diluted stock was added to one well in a 6-well plate. The cells were then cultured for 24 hours.
Cells were transfected with Lipofectamine 2000 reagent (Invitrogen) or DA 13:11 at a 10:1 charge […]
F-12 +/+ was aspirated and cells were washed with F-12 -/-. 2 mL of fresh F-12 -/- was then added to each well, taking care not to disturb adherent cells. For each well of CHO-k1 cells, 12.5 µL Lipofectamine 2000 reagent (Invitrogen) was added to 250 µL Opti-MEM reduced serum media (Invitrogen) in a polypropylene tube and incubated for 20 minutes at RT. Meanwhile, for each well, 4 µg of PKCδ-GFP pDNA and 250 µL Opti-MEM reduced serum media was added to a separate polypropylene tube. 250 µL of the Lipofectamine 2000 suspension was added to the DNA suspension and the solution incubated for 30 minutes at RT. 500 µL of the Lipofectamine/DNA suspension was added to the respective wells of the 6-well plate. The cells were then incubated at 37 ° C (5% CO2) for ~24 hrs.
F-12 +/+ was aspirated and cells were washed with F-12 -/-. 2.4 mL of fresh F-12 -/- was then added to each well, taking care not to disturb adherent cells. A 4 µg aliquot of PKCδ-GFP pDNA was added to PBS (pH 5.5, final volume 100 µL). 5.6 µL of DA 13:11 (2 mM stock in DMSO) was then added to the DNA solution, and the mixture was gently mixed (by flicking) for 20 seconds, at which point it was added directly to the respective wells of the 6-well plate.

[1] = system: CD22 surface expression in NALM6 cells; assay: CD22 surface expression in NALM6 cells (flow cytometry); assay type: cell-based, human; conditions: NALM6 cells at 1 nM relative to DMSO control; 24 h incubation, washout, 24 h sub-culture; n = 3
Description: CD22 Surface Expression Protocol – NALM6 Cells […]
unless otherwise noted below) at 37 ° C in an incubator (5% CO2). Cell cultures were maintained […]
Cell suspension from a confluent T75 flask (Fisher) was transferred to a 15 mL falcon tube and centrifuged at 1100 rpm for 7 minutes. The supernatant was aspirated, and the cell pellet was […]
Cells were counted using a Countess II Automated Cell
199 µL of this stock was added to 24 wells (enough for triplicate measurements for 8 different experimental conditions) in a 96-well plate. Dosing was […]
each experiment. 1 µL of DMSO or the appropriate stock solution of compound in DMSO was added to each well. Cells were incubated for 24 hours, at which point the cell suspensions were transferred to 1.5 mL Eppendorf tubes and diluted with 1.0 mL of PBS (Hyclone, without Ca2+ or Mg2+). Samples were centrifuged at 2000 rpm for 5 min at RT. The supernatant was aspirated, […]
Cells were sub-cultured between 2 […]
surface expression was assayed by flow cytometry.
Cells from one well were counted using a Countess II Automated Cell Counter (Fisher). ~200,000 – 300,000 cells from each well were added to 1.5 mL Eppendorf tubes containing PBS (final volume ~1.2 mL). The cell suspensions were centrifuged at 1500 rpm for 7 minutes at 4 °C. The supernatant was aspirated, and the cell pellet was resuspended in 99 µL of pre-chilled FACS […]
buffer (0.5% w/v BSA in PBS). […]
minutes. Samples were then diluted with an additional 1.0 mL of FACS buffer and centrifuged at 1500 rpm for 7 minutes at 4 °C. The supernatant was aspirated, the cell pellets were resuspended in 200 µL FACS buffer, and the resulting suspensions were transferred to FACS tubes (Fisher, […]
Cells were stained with DAPI and CD22 surface expression was analyzed using the FACScan Analyzer at the Stanford Shared FACS Facility. Data analysis was performed using FlowJo and Microsoft Excel.

CCCC=CC=CC(=O)OC1C(=CC(=O)OC)CC2CC(C(C)O)OC(=O)CC(O)CC3CC(OC(C)=O)C(C)(C)C(O)(CC4CC(OC(=O)CN(C)C)CC(C=CC(C)(C)C1(O)O2)O4)O3 (stereo not shown) [SUW212]
decrease in affinity to PKC (PKC): 20-100 fold | Ki (PKCα): 40 nM | Ki (PKCδ): 24 nM | Emax at 1 µM (PKCδ-GFP fusion protein; CHO-K1, 1000 nM compound, CHO-k1 cells, n = 3, read-out: % Translocation (maximum translocation of PKCδ-GFP to the plasma membrane)): 50% | minimum effective concentration required to induce translocation of PKC-GFP to the membrane (PKCδ-GFP fusion protein; CHO-k1 cells): 1000 nM | sustained translocation of PKC (PKCδ-GFP fusion protein; at up to 1000 nM): did not achieve sustained translocation of PKC

CCCC=CC=CC(=O)OC1C(=CC(=O)OC)CC2CC(C(C)O)OC(=O)CC(O)CC3CC(OC(C)=O)C(C)(C)C(O)(CC4CC(=CC(=O)OCc5ccccc5)CC(C=CC(C)(C)C1(O)O2)O4)O3 (stereo not shown) [SUW220]
% Translocation (maximum translocation of PKCδ-GFP to the plasma membrane) (PKCδ-GFP fusion protein; 1000 nM compound, CHO-k1 cells, n = 3): 50% | minimum effective concentration required to induce translocation of PKC-GFP to the membrane (PKCδ-GFP fusion protein; CHO-k1 cells): 1000 nM

CCCCCCCC(=O)O[C@H]1/C(=C/C(=O)OC)C[C@H]2C[C@H]([C@@H](C)O)OC(=O)C[C@H](O)C[C@@H]3C[C@H](OC(C)=O)C(C)(C)[C@](O)(C[C@@H]4C[C@@H](C)C[C@H](/C=C/C(C)(C)[C@]1(O)O2)O4)O3 [SUW226]
Emax at 0.2 µM (PKCδ-GFP fusion protein; CHO-K1, 200 nM compound, CHO-k1 cells, n = 3, read-out: % Translocation (maximum translocation of PKCδ-GFP to the plasma membrane)): 75% | minimum effective concentration required to induce translocation of PKC-GFP to the membrane (PKCδ-GFP fusion protein; CHO-k1 cells): 200 nM

C=CCOC(=O)/C=C1\C[C@H]2C[C@]3(O)O[C@H](C[C@@H](O)CC(=O)O[C@@H]([C@@H](C)O)C[C@@H]4C/C(=C\C(=O)OC)[C@H](OC(=O)/C=C/C=C/CCC)[C@@](O)(O4)C(C)(C)/C=C/[C@@H](C1)O2)C[C@H](OC(C)=O)C3(C)C [SUW230]
Fold increase CD22 expression [1]: 1.62 fold | % Translocation (maximum translocation of PKCδ-GFP to the plasma membrane) (PKCδ-GFP fusion protein; 200 nM compound, CHO-k1 cells, n = 3): 65% | minimum effective concentration required to induce translocation of PKC-GFP to the membrane (PKCδ-GFP fusion protein; CHO-k1 cells): 200 nM
